According to PubChem BioAssay AID608 (Sanford-Burnham Center for Chemical Genomics, 2007):
Calls of active or inactive are those of the source. The rule behind the calls is not given here.

What follows are compounds tested against Peptidyl-prolyl cis-trans isomerase FKBP1A (Homo sapiens) (UniProt P62942) (assay: FKBP12 binders, biophysical, NMR detection (AID 608)). Details: NMR binding, purified FKBP12.
Sequence of Peptidyl-prolyl cis-trans isomerase FKBP1A (Homo sapiens) (P62942 whole entry, looked up): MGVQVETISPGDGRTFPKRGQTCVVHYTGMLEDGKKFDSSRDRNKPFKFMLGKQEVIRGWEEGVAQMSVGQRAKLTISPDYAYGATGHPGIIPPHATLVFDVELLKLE

| Compound | Kd |
| --- | --- |
| COc1ccc2c(c1)OC/C(=C/c1ccc(O)c(O)c1)C2=O | > 4 mM (inactive) |
| OCc1ccc(-n2ccnc2)cc1 | > 4 mM (inactive) |
| c1ccc(-c2noc(-c3cccnc3)n2)nc1 | > 4 mM (inactive) |
| Cc1ccc(C2NS(=O)(=O)N=C2N)cc1 (centres undefined) | > 4 mM (inactive) |
| CNCc1ccccc1 | > 4 mM (inactive) |
| CC1=NN2C(=N)CC(=O)N=C2S1 | > 4 mM (inactive) |
| CCCCCCCCCCCCCCC(C(=O)OC)C(O)(CC(=O)OC)C(=O)OC (centres undefined) | > 4 mM (inactive) |
| CC1CN=C(Nc2ccccc2)S1 (centres undefined) | > 4 mM (inactive) |
| O=c1[nH]c(N2CCOCC2)nc2ccccc12 | > 4 mM (inactive) |
| Cn1c(=O)[nH]c2nc[nH]c2c1=O | > 4 mM (inactive) |
| CCc1cc(=O)[nH]c(SCC(=O)NCCOC)n1 | > 4 mM (inactive) |
| Cc1ccccc1CSc1nncn1N | > 4 mM (inactive) |
| CC(=O)Oc1c(C)cc(O)c2ccccc12 | > 4 mM (inactive) |
| CCn1cnc2cc(NCc3ccncc3)ccc21 | > 4 mM (inactive) |
| COC(=O)c1sc(N)nc1C | > 4 mM (inactive) |
| Cc1c(O)c(O)cc2c1CC=C1[C@@]2(C)CC[C@@]2(C)C3C[C@](C)(C(=O)O)CC[C@]3(C)CC[C@]12C (some centres undefined) | > 4 mM (inactive) |
| NC(=O)C1CCN(C(=O)c2ccccc2F)CC1 | > 4 mM (inactive) |
| Nc1nc(CSc2ncn(-c3ccccc3)n2)cs1 | > 4 mM (inactive) |
| O=C(NN1C(=O)C2C3C=CC(C3)C2C1=O)C1CC=CCC1 (centres undefined) | > 4 mM (inactive) |
| CCOC(=O)C1CCN(Cc2ccccc2)CC1 | > 4 mM (inactive) |
| CC(=O)O[C@H]1C[C@@H](OC(C)=O)C(C)(C)C2C[C@@H](O)[C@]3(C)C(CC[C@@]4(C)[C@H](c5ccoc5)OC(=O)[C@H]5O[C@]543)[C@]21C (some centres undefined) | > 4 mM (inactive) |
| Cc1nc2ccccc2c(=O)n1/N=C/c1ccncc1 | > 4 mM (inactive) |
| CC1=C2C(O)C(=O)OC3CC4C(C)(C)C(=O)C=C[C@]4(C)C(CC1)[C@]23C (some centres undefined) | > 4 mM (inactive) |

| Compound | Kd |
| --- | --- |
| Cn1c(O)c(/C=C2\C=CC=N2)c(=O)[nH]c1=S | > 4 mM (inactive) |
| CC(C)=NNC(=O)C(=O)NC(C)(C)C | > 4 mM (inactive) |
| CC(=O)NC(=S)Nc1ccccc1C | > 4 mM (inactive) |
| NCc1ccc2c(c1)OCCCO2 | > 4 mM (inactive) |
| Nc1ccc(-n2cccc2)cc1 | > 4 mM (inactive) |
| Cc1ccc(C)c(C(=O)NCc2ccncc2)c1 | > 4 mM (inactive) |
| Nc1ncnc(Cl)c1[N+](=O)[O-] | > 4 mM (inactive) |
| C=C1C([C@]2(C)C(CC(=O)OC)[C@@](C)(COC(C)=O)OC(=O)C[C@@H]2OC(C)=O)[C@@H](OC=O)[C@H](OC(=O)C(O)C(C)CC)[C@@]2(C)[C@H](c3ccoc3)CC(=O)C12O (some centres undefined) | > 4 mM (inactive) |
| CN1CCN(C2CCSC2)CC1 (centres undefined) | > 4 mM (inactive) |
| OCc1ncoc1-c1ccccc1 | > 4 mM (inactive) |
| O=C(NC(=S)NC1CCSC1=O)c1ccco1 (centres undefined) | > 4 mM (inactive) |
| Cc1nc2cc(NC(=O)Nc3nccs3)ccc2n1C | > 4 mM (inactive) |
| Nc1ccc2c(c1)CCCC2=O | > 4 mM (inactive) |
| COc1cccc(-c2nc3ccc(O)cc3c(=O)o2)c1 | > 4 mM (inactive) |
| O=C(CN1C(=O)c2cccc3cccc(c23)C1=O)NO | > 4 mM (inactive) |
| CC1CC[C@]2(NC1)O[C@H]1CC3C4CC[C@H]5C[C@@H](O)CC[C@]5(C)C4CC[C@]3(C)[C@H]1[C@@H]2C (some centres undefined) | > 4 mM (inactive) |
| O=C(Nc1nccs1)c1ccc(=O)[nH]n1 | > 4 mM (inactive) |
| COC(=O)c1c(OC)cc2c(c1C)Oc1c(Cl)c(O)c(Cl)c(C)c1C(=O)O2 | > 4 mM (inactive) |
| O=C1CSC(=Nc2ccc(F)cc2)N1 | > 4 mM (inactive) |
| CC(=O)Nc1nc2c(s1)C(=O)NCCC2 | > 4 mM (inactive) |
| OCc1ccc(CN2CCOCC2)cc1 | > 4 mM (inactive) |
| Cc1nc(SCC#N)c2c(C)c(C)sc2n1 | > 4 mM (inactive) |
| COc1ccc(Cl)cc1NC(=O)c1ccco1 | > 4 mM (inactive) |

| Compound | Kd |
| --- | --- |
| S=c1nc(C2CC2)[nH]c2ccccc12 | > 4 mM (inactive) |
| O=C(O)CN1CCNCC1 | > 4 mM (inactive) |
| Cc1cc(CN2C(=O)c3ccccc3C2=O)on1 | > 4 mM (inactive) |
| Cc1ccc(C(=O)Nc2c[nH]c(=O)[nH]c2=O)cc1 | > 4 mM (inactive) |
| C[C@@H]1OC(O[C@H]2[C@H](OC(=O)[C@]34CCC(C)(C)CC3C3=CCC5[C@@]6(C)CC[C@H](OC7O[C@@H](C)[C@H](O[C@@H]8OC[C@@H](O)[C@H](O)[C@H]8O)[C@@H](O)[C@H]7O)C(C)(C)C6CC[C@@]5(C)[C@]3(C)CC4O)OC[C@H](O)[C@H]2O)[C@H](O)[C@H](O)[C@H]1O[C@@H]1O[C@H](CO)[C@@H](O)[C@H](O)[C@H]1O (some centres undefined) | > 4 mM (inactive) |
| CC(C)=CCCC1(C)C=Cc2c(O)c3c(c(CC=C(C)C)c2O1)OC12C(=CC4CC1C(C)(C)OC2(C/C=C(/C)C(=O)O)C4=O)C3=O (centres undefined) | > 4 mM (inactive) |
| O=S(=O)(Nc1ccc(F)cc1)N1CCOCC1 | > 4 mM (inactive) |
| Cc1nnc(SCc2ccccc2)[nH]c1=O | > 4 mM (inactive) |
| O=C(CSc1ccccc1)N1CCOCC1 | 0.0235 mM |
| COc1nc(C)ccc1-c1noc(-c2ccco2)n1 | > 4 mM (inactive) |
| S=C(NCc1ccco1)NN1CCOCC1 | > 4 mM (inactive) |
| Cc1cc(C)n(C2CCS(=O)(=O)C2)n1 (centres undefined) | > 4 mM (inactive) |
| N#CCSc1nnc2ccc3ccccc3n12 | > 4 mM (inactive) |
| Nc1ccn(C2O[C@H](CO)[C@@H](O)[C@H]2O)c(=O)n1 (some centres undefined) | > 4 mM (inactive) |
| CSc1nc(=O)[nH]c2c1CCC2 | > 4 mM (inactive) |
| COc1ccc2c(c1)c1n[nH]c(=S)nc1n2C | > 4 mM (inactive) |
| CN(C)C(=O)CSc1cccc2cccnc12 | > 4 mM (inactive) |
| Cc1cc(O)cc(O)c1C(=O)O | > 4 mM (inactive) |
| COc1cc([C@@H]2c3cc4c(cc3[C@H](O)[C@H]3COC(=O)[C@H]23)OCO4)cc(OC)c1OC | > 4 mM (inactive) |
| O=c1c2ccccc2oc2ccccc12 | > 4 mM (inactive) |
| COC(=O)C1COCCN1C(=O)C(F)(F)Sc1ccc(C(C)C)cc1 (centres undefined) | 0.19 mM |
| CC(C)(C#N)O[C@@H]1O[C@H](CO)[C@@H](O)[C@H](O)[C@H]1O | > 4 mM (inactive) |
| OCCNC(=S)Nc1ccc(F)cc1 | > 4 mM (inactive) |

| Compound | Kd |
| --- | --- |
| NC1=NC(=O)/C(=C/c2cccs2)S1 | > 4 mM (inactive) |
| O=C1CSC(=NC(=O)c2ccccc2)N1 | > 4 mM (inactive) |
| CNC(=O)C(=O)NCc1ccc(C)cc1 | > 4 mM (inactive) |
| O=C(c1cnsn1)N1CCN(c2ccccc2)CC1 | > 4 mM (inactive) |
| O=C1CNC(=O)/C1=C/c1ccc(O)cc1 | > 4 mM (inactive) |
| C[C@@H]1O[C@@H](O[C@H]2C[C@@H](O)[C@]3(CO)C4C(CC[C@]3(O)C2)[C@@]2(O)CC[C@H](C3=CC(=O)OC3)[C@@]2(C)C[C@H]4O)[C@H](O)[C@H](O)[C@H]1O (some centres undefined) | > 4 mM (inactive) |
| O=C(O)Cn1nc(-c2ccccc2)c2ccccc2c1=O | > 4 mM (inactive) |
| O=C1NC(=O)C(C2SC(=O)NC2=O)S1 (centres undefined) | > 4 mM (inactive) |
| C=C1CCC2C(CC2(C)C)C(=C)CC/C1=N/O (centres undefined) | > 4 mM (inactive) |
| CSc1nc(NC(C)(C)C)nc(N2CCOCC2)n1 | > 4 mM (inactive) |
| CC(O)(C(=O)O)c1ccccc1 (centres undefined) | > 4 mM (inactive) |
| CC1CCN(C(=O)c2ccc3c(c2)OCCO3)CC1 | > 4 mM (inactive) |
| Nc1ccccc1N1CCOCC1 | > 4 mM (inactive) |
| COc1ccc(-c2ccc(=O)n(CC(N)=O)n2)cc1 | > 4 mM (inactive) |
| N#Cc1cn(CC(=O)N2CCCC2)c2ccccc12 | > 4 mM (inactive) |
| Cc1ccccc1CSc1nnc(C)n1N | > 4 mM (inactive) |
| Cc1ccccc1NC(=O)/C=C\C(N)=O | > 4 mM (inactive) |
| CN(C)S(=O)(=O)c1cccc(N)c1 | > 4 mM (inactive) |
| CC(C)NS(=O)(=O)c1ccc(N)cc1 | > 4 mM (inactive) |
| O=C(NCc1ccccn1)c1ccc(Cl)cc1Cl | > 4 mM (inactive) |
| O=C(O)c1ccccc1C(=O)NCC1CCCO1 (centres undefined) | > 4 mM (inactive) |
| CC(=O)NC(c1ccccc1)c1cccnc1 (centres undefined) | > 4 mM (inactive) |
| N#Cc1cnc(N2CCCCC2)nc1N | > 4 mM (inactive) |

| Compound | Kd |
| --- | --- |
| CC1=NCCc2c1[nH]c1cc(O)ccc21 | > 4 mM (inactive) |
| COc1cc(CNCCc2ccc(S(N)(=O)=O)cc2)ccc1OCC(=O)N1CCOCC1 | > 4 mM (inactive) |
| CN(C)C(=O)Oc1cccc(-c2nnco2)c1 | > 4 mM (inactive) |
| CCOc1ccc(C(=O)c2ccc(OC)c(O)c2O)cc1 | > 4 mM (inactive) |
| Cc1nc(-c2ccc(NS(C)(=O)=O)cc2)cs1 | > 4 mM (inactive) |
| Cc1ccc(C(=O)n2cnnc2N)cc1C | > 4 mM (inactive) |
| CC(C)NC(=O)Cc1c(O)c2ccccc2[nH]c1=O | > 4 mM (inactive) |
| Cc1cccc(N2C(=O)CCC2=O)n1 | > 4 mM (inactive) |
| O=c1ccnc(Nc2ccccc2O)[nH]1 | > 4 mM (inactive) |
| OCc1csc(-c2cccs2)n1 | > 4 mM (inactive) |
| CC(C)=CCOc1c2occc2cc2ccc(=O)oc12 | > 4 mM (inactive) |
| Cc1ccc(-c2nnc3sc(-c4ccncc4)nn23)cc1 | > 4 mM (inactive) |
| Cc1noc(C)c1C(=O)N1CCN(c2ncccn2)CC1 | > 4 mM (inactive) |
| Nc1cc(=O)[nH]c(=S)n1CCc1ccccc1 | > 4 mM (inactive) |
| O=S1(=O)CCC(NCCO)C1 (centres undefined) | > 4 mM (inactive) |
| CC1=CC(=O)CC(C)(C)C1(O)/C=C/C(C)=C\C(=O)O (centres undefined) | > 4 mM (inactive) |
| O=C(Cn1cnc2ccccc2c1=O)N1CCOCC1 | > 4 mM (inactive) |
| CCN1CCc2c(sc(N)c2C#N)C1 | > 4 mM (inactive) |
| NCc1ccc2c(c1)CCO2 | > 4 mM (inactive) |
| OC12CC3CC(C1)C1(NCCS1)C(C3)C2 (centres undefined) | > 4 mM (inactive) |
| CC1(NC(=O)NCc2ccccc2)CCS(=O)(=O)C1 (centres undefined) | > 4 mM (inactive) |
| CC(=O)CS(=O)(=O)c1ccccc1 | > 4 mM (inactive) |
